The assay addresses T1, Microsomal glutathione transferase 1 (MGST1) (Rattus norvegicus, UniProt P08011).
T1 sequence (P08011 2-155): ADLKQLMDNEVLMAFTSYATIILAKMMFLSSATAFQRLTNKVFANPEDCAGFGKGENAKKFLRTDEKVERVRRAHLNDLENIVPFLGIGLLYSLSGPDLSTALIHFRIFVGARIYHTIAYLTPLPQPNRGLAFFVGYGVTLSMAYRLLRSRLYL
In words: equilibrium dialysis. In kind it is binding. For orientation: In equilibrium dialysis free small molecules cross a membrane that holds back macromolecules.

For orientation: Kd means the constant that tells how readily two partners part at equilibrium. A lower Kd goes with higher affinity. As to `N[C@@H](CCC(=O)N[C@@H](CSc1ccc([N+](=O)[O-])cc1[N+](=O)[O-])C(=O)NCC(=O)O)C(=O)O` [GSDNB, 1-S-glutathionyl-2,4-dinitrobenzene], the affinity, expressed as Kd, was 320 ± 50 µM.

The record behind these values is PMC2996728 (Archives of biochemistry and biophysics, 2009).
